System: HUVEC/MSC spheroids viability
Assay: Human HUVEC/MSC cell line growth inhibition [KRAS2];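 as to viability, T/C: percent of DMSO vehicle control luminescence so 100% = untreated viability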
Conditions: for IC50: curve of first compound; for viability, T/C: stronger effect = lower value; active = viability on the fitted dose curve at most 10% of control; inactive = the rest
Summary of the method: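 Spheroids of human HUVEC plus MSCs, without tumor cells, were treated with single agents and combinations. Each drug was tested in half-log steps down from near its clinical Cmax, or from 10 microM when Cmax was unknown. HUVEC and hMSC were used at passage </=5.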

[1] = second compound 0.0316 µM, first compound 0.000316 µM
[2] = second compound 0.0316 µM, first compound 0.001 µM
[3] = second compound 0.0316 µM, first compound 0.00316 µM
[4] = second compound 0.0316 µM, first compound 0.01 µM
[5] = second compound 0.0316 µM, first compound 0.0316 µM
[6] = second compound 0.0316 µM, first compound 0.1 µM
[7] = second compound 0.1 µM, first compound 0.000316 µM
[8] = second compound 0.1 µM, first compound 0.001 µM
[9] = second compound 0.1 µM, first compound 0.00316 µM
[10] = second compound 0.1 µM, first compound 0.01 µM
[11] = second compound 0.1 µM, first compound 0.0316 µM
[12] = second compound 0.1 µM, first compound 0.1 µM
[13] = second compound 0.316 µM, first compound 0.000316 µM
[14] = second compound 0.316 µM, first compound 0.001 µM
[15] = second compound 0.316 µM, first compound 0.00316 µM
[16] = second compound 0.316 µM, first compound 0.01 µM
[17] = second compound 0.316 µM, first compound 0.0316 µM
[18] = second compound 0.316 µM, first compound 0.1 µM
[19] = second compound 1 µM, first compound 0.000316 µM
[20] = second compound 1 µM, first compound 0.001 µM
[21] = second compound 1 µM, first compound 0.00316 µM
[22] = second compound 1 µM, first compound 0.01 µM
[23] = second compound 1 µM, first compound 0.0316 µM
[24] = second compound 1 µM, first compound 0.1 µM
[25] = second compound 3.16 µM, first compound 0.000316 µM
[26] = second compound 3.16 µM, first compound 0.001 µM
[27] = second compound 3.16 µM, first compound 0.00316 µM
[28] = second compound 3.16 µM, first compound 0.01 µM
[29] = second compound 3.16 µM, first compound 0.0316 µM
[30] = second compound 3.16 µM, first compound 0.1 µM
[31] = second compound 10 µM, first compound 0.000316 µM
[32] = second compound 10 µM, first compound 0.001 µM
[33] = second compound 10 µM, first compound 0.00316 µM
[34] = second compound 10 µM, first compound 0.01 µM
[35] = second compound 10 µM, first compound 0.0316 µM
[36] = second compound 10 µM, first compound 0.1 µM

Cn1ncnc1[C@H]1c2n[nH]c(=O)c3cc(F)cc(c23)N[C@@H]1c1ccc(F)cc1 + CC1OCC2(CCN(c3cnc(Sc4ccnc(N)c4Cl)c(N)n3)CC2)C1N
inactive: viability, T/C [1] 105% | viability, T/C [2] 111% | viability, T/C [3] 97.5% | viability, T/C [4] 86.9% | viability, T/C [5] 90.8% | viability, T/C [6] 89.7% | viability, T/C [7] 87.9% | viability, T/C [8] 114% | viability, T/C [9] 99.9% | viability, T/C [10] 75.7% | viability, T/C [11] 93.2% | viability, T/C [12] 95.6% | viability, T/C [13] 80% | viability, T/C [14] 111% | viability, T/C [15] 98.5% | viability, T/C [16] 96.9% | viability, T/C [17] 93.2% | viability, T/C [18] 81.7% | viability, T/C [19] 83.9% | viability, T/C [20] 93.7% | viability, T/C [21] 95.4% | viability, T/C [22] 84.3% | viability, T/C [23] 93.8% | viability, T/C [24] 67.7% | viability, T/C [25] 79.7% | viability, T/C [26] 94.4% | viability, T/C [27] 80.9% | viability, T/C [28] 74% | viability, T/C [29] 76.8% | viability, T/C [30] 69.2% | viability, T/C [31] 69.7% | viability, T/C [32] 82.3% | viability, T/C [33] 67.3% | viability, T/C [34] 68.3% | viability, T/C [35] 65.7% | viability, T/C [36] 56%
> 100 nM: IC50 (second compound 0.0316 µM) | IC50 (second compound 0.1 µM) | IC50 (second compound 0.316 µM) | IC50 (second compound 1 µM) | IC50 (second compound 3.16 µM) | IC50 (second compound 10 µM)

COc1cc2nccc(Oc3ccc(NC(=O)C4(C(=O)Nc5ccc(F)cc5)CC4)cc3)c2cc1OC + COc1cc2nc(C)nc(NC(C)c3cc(N)cc(C(F)(F)F)c3)c2cc1OC1CCOC1
4190 nM: IC50 (second compound 0.1 µM)
5330 nM: IC50 (second compound 0.316 µM)
6120 nM: IC50 (second compound 0.0316 µM)
1870 nM: IC50 (second compound 10 µM)
4260 nM: IC50 (second compound 3.16 µM)
active: viability, T/C (second compound 3.16 µM, first compound 10 µM) 3.26% | viability, T/C (second compound 10 µM, first compound 10 µM) 0.26%
inactive: viability, T/C [5] 73.8% | viability, T/C [6] 75.2% | viability, T/C (second compound 0.0316 µM, first compound 0.316 µM) 66.8% | viability, T/C (second compound 0.0316 µM, first compound 1 µM) 80.3% | viability, T/C (second compound 0.0316 µM, first compound 3.16 µM) 73.5% | viability, T/C (second compound 0.0316 µM, first compound 10 µM) 32.5% | viability, T/C [11] 74.7% | viability, T/C [12] 77% | viability, T/C (second compound 0.1 µM, first compound 0.316 µM) 68% | viability, T/C (second compound 0.1 µM, first compound 1 µM) 64.8% | viability, T/C (second compound 0.1 µM, first compound 3.16 µM) 63.4% | viability, T/C (second compound 0.1 µM, first compound 10 µM) 15.9% | viability, T/C [17] 66.1% | viability, T/C [18] 68.5% | viability, T/C (second compound 0.316 µM, first compound 0.316 µM) 60.8% | viability, T/C (second compound 0.316 µM, first compound 1 µM) 78.2% | viability, T/C (second compound 0.316 µM, first compound 3.16 µM) 87.7% | viability, T/C (second compound 0.316 µM, first compound 10 µM) 23.3% | viability, T/C [23] 61.6% | viability, T/C [24] 69% | viability, T/C (second compound 1 µM, first compound 0.316 µM) 58.1% | viability, T/C (second compound 1 µM, first compound 1 µM) 85.2% | viability, T/C (second compound 1 µM, first compound 3.16 µM) 79.4% | viability, T/C (second compound 1 µM, first compound 10 µM) 21.1% | viability, T/C [29] 60.6% | viability, T/C [30] 67.2% | viability, T/C (second compound 3.16 µM, first compound 0.316 µM) 60.9% | viability, T/C (second compound 3.16 µM, first compound 1 µM) 76.5% | viability, T/C (second compound 3.16 µM, first compound 3.16 µM) 66.9% | viability, T/C [35] 56.9% | viability, T/C [36] 57.8% | viability, T/C (second compound 10 µM, first compound 0.316 µM) 73.3% | viability, T/C (second compound 10 µM, first compound 1 µM) 82.5% | viability, T/C (second compound 10 µM, first compound 3.16 µM) 35.1%
5100 nM: IC50 (second compound 1 µM)

CC(C)n1nc(-c2ccc3oc(N)nc3c2)c2c(N)ncnc21 + CC1OCC2(CCN(c3cnc(Sc4ccnc(N)c4Cl)c(N)n3)CC2)C1N
inactive: viability, T/C [1] 108% | viability, T/C [2] 95.2% | viability, T/C [3] 63.9% | viability, T/C [4] 53.5% | viability, T/C [5] 50.4% | viability, T/C [6] 43.9% | viability, T/C [7] 100% | viability, T/C [8] 93.8% | viability, T/C [9] 63.3% | viability, T/C [10] 49.6% | viability, T/C [11] 43.6% | viability, T/C [12] 36.4% | viability, T/C [13] 85% | viability, T/C [14] 81.3% | viability, T/C [15] 49.2% | viability, T/C [16] 47.5% | viability, T/C [17] 42.6% | viability, T/C [18] 35.6% | viability, T/C [19] 83.8% | viability, T/C [20] 71.2% | viability, T/C [21] 43.4% | viability, T/C [22] 33.1% | viability, T/C [23] 33.3% | viability, T/C [24] 28.9% | viability, T/C [25] 62.6% | viability, T/C [26] 60% | viability, T/C [27] 36.5% | viability, T/C [28] 27.7% | viability, T/C [29] 22% | viability, T/C [30] 23.1% | viability, T/C [31] 48.2% | viability, T/C [32] 41.8% | viability, T/C [33] 22.3% | viability, T/C [34] 16.2% | viability, T/C [35] 16.8% | viability, T/C [36] 10.7%
8.3 nM: IC50 (second compound 0.1 µM)
3.12 nM: IC50 (second compound 0.316 µM)
14.8 nM: IC50 (second compound 0.0316 µM)
2.42 nM: IC50 (second compound 1 µM)
1.61 nM: IC50 (second compound 3.16 µM)
< 0.316 nM: IC50 (second compound 10 µM)
